Test results from patent US20170334899A1, “AMINO-SUBSTITUTED ISOTHIAZOLES” (Bayer Pharma Aktiengesellschaft, priority 2014, published 2017).

How the values were obtained:
Assay type in all cases: cell-based
HeLa = test: Proliferation assay (crystal violet), HeLa; details: Homo sapiens, HeLa, 96 h, HeLa cells; 4 days incubation; crystal violet staining; read-out: IC50 inhibition of proliferation, HeLa
Procedure: Cultivated tumor cells (cells were ordered from ATCC, except HeLa-MaTu and HeLa-MaTu-ADR, which were ordered from EPO-GmbH, Berlin) were plated at a density of 1000 to 5000 cells/well, depending on the growth rate of the respective cell line, in a 96-well multititer plate in 200 μL of their respective growth medium supplemented 10% fetal calf serum. After 24 hours, the cells of one plate (zero-point plate) were stained with crystal violet (see below), while the medium of the other plates was replaced by fresh culture medium (200 μl), to which the test substances were added in various concentrations (0 μM, as well as in the range of 0.001-10 μM; the final concentration of the solvent dimethyl sulfoxide was 0.5%). The cells were incubated for 4 days in the presence of test substances. Cell proliferation was determined by staining the cells with crystal violet: the cells were fixed by adding 20 μl/measuring point of an 11% glutaric aldehyde solution for 15 minutes at room temperature. After three washing cycles of the fixed cells with water, the plates were dried at room temperature. The cells were stained by adding 100 μl/measuring point of a 0.1% crystal violet solution (pH 3.0). After three washing cycles of the stained cells with water, the plates were dried at room temperature. The dye was dissolved by adding 100 μl/measuring point of a 10% acetic acid solution. Absorbtion was determined by photometry at a wavelength of 595 nm. The change of cell number, in percent, was calculated by normalization of the measured values to the aborbtion values of the zero-point plate (=0%) and the absorbtion of the untreated (0 μm) cells (=100%). The IC50 values were determined by means of a 4 parameter fit.

[1] = system: human cervical tumor cell line HeLa (ATCC CCL-2); test: SAC-Formation - Paclitaxel-Induced Assay; details: Homo sapiens, HeLa, 24 h, HeLa cells, paclitaxel 0.05 μM, test range 0.005 μM-20 μM, read-out: IC50 [mol/l] SAC-Formation - Paclitaxel-Induced Assay
From the text: (§1) The spindle assembly checkpoint assures the proper segregation of chromosomes during mitosis. Upon entry into mitosis, chromosomes begin to condensate which is accompanied by the phosphorylation of histone H3 on serine 10. Dephosphorylation of histone H3 on serine 10 begins in anaphase and ends at early telophase. Accordingly, phosphorylation of histone H3 on serine 10 can be utilized as a marker of cells in mitosis. Nocodazole is a microtubule destabilizing substance. Paclitaxel is a microtubule stabilizing compound. Thus, nocodazole as well as paclitaxel interfere with microtubule dynamics and mobilize the spindle assembly checkpoint. […] The mitotic breakthrough can be detected by the decrease of cells with phosphorylation of histone H3 on serine 10. This decline is used as a marker to determine the capability of compounds of the present invention to induce a mitotic breakthrough. The typical morphological alteration of nuclei with a prematurely completed mitosis after SAC-inhibition can be monitored via image analysis routines supporting those findings.
(§2) The nocodazole and paclitaxel variations were used to focus on compounds that are capable of inhibiting a SAC induced by both microtubule destabilization as well as microtubule stabilization. When SAC inducing agents and compounds are given simultaneously inhibitors that effectively block the SAC during formation or abrogation are identified. When cells are incubated with a SAC inducing agent and the SAC interfering compound is given after a defined time, inhibitors are identified that effectively block SAC abrogation.
Cultivated cells of the human cervical tumor cell line HeLa (ATCC CCL-2) were plated at a density of 1000 cells/well in a 1536-well microtiter plate in 2 μl PAA
(§3) Ham's F12 Medium supplemented with 1% (v/v) glutamine, 1% (v/v) penicillin, 1% (v/v) streptomycin and 10% (v/v) fetal calf serum. After incubation overnight at 37° C., 10 μl/well paclitaxel at a final concentration of 0.05 μM were added to cells. Test compounds solubilized in dimethyl sulfoxide (DMSO) were added at various concentrations (0 μM, as well as in the range of 0.005 μM -20 μM; the final concentration of the solvent DMSO was 0.5% (v/v)). Cells were incubated for 24 h at 37° C. in the presence of test compounds in combination with paclitaxel. Thereafter, cells were fixed in 4% (v/v) paraformaldehyde in phosphate buffered saline (PBS) at 4° C. overnight then permeabilized in 0.1% (v/v) Triton X™ 100 in PBS at room temperature for 20 min and blocked in 0.5% (v/v) bovine serum albumin (BSA) in PBS at room temperature for 15 min. After washing with PBS, 5 μl/well antibody solution (anti-phospho-histone H3 clone 3H10, FITC; Millipore, Cat#16-222; 1:1000 dilution) was added to cells, which were incubated for 2 h at room temperature. Afterwards, cells were washed with PBS and 5 μl/well solution of HOECHST 33342 dye (5 μg/ml) was added to cells and cells were incubated 15 min at room temperature in the dark. Cells were washed twice with PBS then covered with PBS and stored at 4° C. until analysis. Images were acquired with a PERKIN ELMER OPERA™ High-Content Analysis reader. Images were analyzed with image analysis software MetaXpress™ from Molecular devices utilizing the Mitotic Index application module. In this assay both labels HOECHST 33342 and phosphorylated Histone H3 on serine 10 were measured. HOECHST 33342 labels the DNA and is used to count the cell number. The staining of phosphorylated Histone H3 on serine 10 determines the number of mitotic cells. […] Otherwise cells were arrested at G2/M phase of the cell cycle progression. The raw assay data were further analyzed by four-parametric hill equation using Genedata's Assay Analyzer and Condoseo software.

[2] = system: human cervical tumor cell line HeLa (ATCC CCL-2); test: SAC-Formation - Nocodazole-Induced Assay; details: Homo sapiens, HeLa, 24 h, HeLa cells, nocodazole 0.1 μg/ml together with test compound, decrease of mitotic cells (phospho-histone H3 Ser10)
From the text: as §1, §2
as §3, with “Cultivated cells of the human cervical tumor cell line HeLa (ATCC CCL-2) were plated at a density of 1000 cells/well in a 1536-well microtiter plate in 2 μl PAA Ham's” for “Ham's”, “nocodazole” for “paclitaxel”, “0.1 μg/ml” for “0.05 μM”, “μM-20” for “μM -20”, “nocodazole.” for “paclitaxel.”

COCCCNC(=O)c1cccc(NC(=O)c2c(C)nsc2Nc2cnc3ccccc3n2)c1 [Example 85, N-{3-[(3-Methoxypropyl)carbamoyl]phenyl}-3-methyl-5-(quinoxalin-2-ylamino)-1,2-thiazole-4-carboxamide]
IC50 (HeLa): 8.9 µM | IC50 [1]: 0.97 µM | IC50 [2]: 0.018 µM

Cc1nsc(Nc2cnc3ccccc3n2)c1C(=O)Nc1cccc(C(=O)NCC(F)(F)F)c1 [Example 64, 3-Methyl-5-(quinoxalin-2-ylamino)-N-{3-[(2,2,2-trifluoro-ethyl)carbamoyl]phenyl}-1,2-thiazole-4-carboxamide]
IC50 (HeLa): 2.7 µM | IC50 [1]: 1.3 µM | IC50 [2]: 0.32 µM

CC(=O)N1CCN(C(=O)c2cccc(NC(=O)c3c(C)nsc3Nc3cnc4ccccc4n3)c2)CC1 [Example 70, N-{3-[(4-Acetylpiperazin-1-yl)carbonyl]phenyl}-3-methyl-5-(quinoxalin-2-ylamino)-1,2-thiazole-4-carboxamide]
IC50 (HeLa): 10 µM | IC50 [1]: 10 µM | IC50 [2]: 2.2 µM

Cc1nsc(Nc2cnc3ccccc3n2)c1C(=O)Nc1cccc(C(=O)N2CCN(C(=O)N(C)C)CC2)c1 [Example 89, N,N-Dimethyl-4-[3-({[3-methyl-5-(quinoxalin-2-ylamino)-1,2-thiazol-4-yl]carbonyl}amino)benzoyl]piperazine-1-carboxamide]
IC50 (HeLa): 10 µM | IC50 [1]: 11 µM | IC50 [2]: 2.9 µM

Cc1nsc(Nc2cnc3ccccc3n2)c1C(=O)Nc1cccc(C(=O)N(C)CCc2ccncc2)c1 [Example 82, 3-Methyl-N-(3-{methyl[2-(pyridin-4-yl)ethyl]carbamoyl}-phenyl)-5-(quinoxalin-2-ylamino)-1,2-thiazole-4-carboxamide]
IC50 (HeLa): 10 µM | IC50 [1]: 14 µM | IC50 [2]: 3.7 µM

CC(=O)NCCNC(=O)c1cccc(NC(=O)c2c(C)nsc2Nc2cnc3ccccc3n2)c1 [Example 66, N-(3-{[2-(Acetylamino)ethyl]carbamoyl}phenyl)-3-methyl-5-(quinoxalin-2-ylamino)-1,2-thiazole-4-carboxamide]
IC50 (HeLa): 10 µM | IC50 [1]: 20 µM | IC50 [2]: 0.72 µM

Cc1nsc(Nc2cnc3ccccc3n2)c1C(=O)Nc1cccc(C(=O)NCCCN2CCCC2)c1 [Example 81, 3-Methyl-N-(3-{[3-(pyrrolidin-1-yl)propyl]carbamoyl}-phenyl)-5-(quinoxalin-2-ylamino)-1,2-thiazole-4-carboxamide]
IC50 (HeLa): 10 µM | IC50 [1]: 11 µM | IC50 [2]: 10 µM

Cc1nsc(Nc2cnc3ccccc3n2)c1C(=O)Nc1cccc(C(=O)Nc2ccc3c(c2)OCO3)c1 [Example 63, N-[3-(1,3-Benzodioxol-5-ylcarbamoyl)phenyl]-3-methyl-5-(quinoxalin-2-ylamino)-1,2-thiazole-4-carboxamide]
IC50 (HeLa): 3.6 µM | IC50 [1]: 0.44 µM | IC50 [2]: 0.19 µM

COc1cc(CNC(=O)c2cccc(NC(=O)c3c(C)nsc3Nc3cnc4ccccc4n3)c2)cc(OC)c1OC [Example 69, 3-Methyl-5-(quinoxalin-2-ylamino)-N-{3-[(3,4,5-trimethoxy-benzyl)carbamoyl]phenyl}-1,2-thiazole-4-carboxamide]
IC50 (HeLa): 4 µM | IC50 [1]: 2.6 µM | IC50 [2]: 0.87 µM

COCCN1CCN(C(=O)c2cccc(NC(=O)c3c(C)nsc3Nc3cnc4ccccc4n3)c2)CC1 [Example 91, N-(3-{[4-(2-Methoxyethyl)piperazin-1-yl]carbonyl}phenyl)-3-methyl-5-(quinoxalin-2-ylamino)-1,2-thiazole-4-carboxamide]
IC50 (HeLa): 10 µM | IC50 [1]: 0.23 µM | IC50 [2]: 0.042 µM

Cc1nsc(Nc2cnc3ccccc3n2)c1C(=O)Nc1cccc(C(=O)NCCN(C)C)c1 [Example 75, N-(3-{[2-(dimethylamino)ethyl]carbamoyl}phenyl)-3-methyl-5-(quinoxalin-2-ylamino)-1,2-thiazole-4-carboxamide]
IC50 (HeLa): 10 µM | IC50 [1]: 10 µM | IC50 [2]: 0.015 µM

Cc1nsc(Nc2cnc3ccccc3n2)c1C(=O)Nc1cccc(C(=O)N2CCN(c3ccccc3F)CC2)c1 [Example 78, N-(3-{[4-(2-Fluorophenyl)piperazin-1-yl]carbonyl}phenyl)-3-methyl-5-(quinoxalin-2-ylamino)-1,2-thiazole-4-carboxamide]
IC50 (HeLa): 7 µM | IC50 [1]: 2 µM | IC50 [2]: 0.47 µM

Cc1nsc(Nc2cnc3ccccc3n2)c1C(=O)Nc1cccc(C(=O)N2CCN(c3ccccc3C#N)CC2)c1 [Example 80, N-(3-{[4-(2-Cyanophenyl)piperazin-1-yl]carbonyl}phenyl)-3-methyl-5-(quinoxalin-2-ylamino)-1,2-thiazole-4-carboxamide]
IC50 (HeLa): 8.3 µM | IC50 [1]: 3.5 µM | IC50 [2]: 1.8 µM
